Experimental data taken from publication PMC10673369, “Preliminary SAR of Novel Pleuromutilin–Polyamine Conjugates” (Microorganisms, 2023).

Assays:
[1] = test system: S. aureus ATCC 25923; assay: Real-time growth inhibition curves, S. aureus; format: cell-based; details: optical density during 18 h culturing
Experimental: Real-time growth curves were determined using reported protocols (see Supplementary File).
Further investigation is required to determine the factors leading to the differences observed in the sub-MIC growth curves for the two compounds.
(§1) Briefly, restoring enhancer concentrations were determined with an inoculum of 5x10^5 CFU in 200 µL of MHB containing two-fold serial dilutions of each derivative in the presence of doxycycline at 4.5 […]
(§2) The lowest concentration of the polyamine
(§3) These measurements were independently repeated in triplicate.
(§4) Outer membrane permeabilization was measured using nitrocefin as a chromogenic substrate of periplasmic β-lactamase. […] Nitrocefin hydrolysis was monitored spectrophotometrically by measuring the increase in absorbance at 490 nm. […]
(§5) HEK293 cells were counted manually in a Neubauer hemocytometer and plated at a density of 5,000 cells/well into each well of the 384-well plates containing the 25x (2 µL) concentrated compounds [26,27]. […]
(§6) To measure cytotoxicity, 5 µL (equals 100 µM final) of resazurin was added to each well after incubation and incubated for further 3 h at 37 °C with 5% CO2. After the final incubation, fluorescence intensity […]
reader. […] The concentration-dependent percentage cytotoxicity was fitted to a dose–response function (using Pipeline Pilot) and CC50 values were determined. […]

[2] = test system: P. aeruginosa PAO1; assay: Nitrocefin hydrolysis assay (outer membrane permeabilization); format: cell-based; details: polymyxin B at 98.3 μM ([…])
Experimental: Nitrocefin assays were conducted using reported protocols (see Supplementary File).
We also examined the ability of 9e to act as membrane disruptor of the Gram-negative bacteria P. aeruginosa PAO1 (Figure 5), using a nitrocefin colorimetric assay. This assay makes use of a chromogenic cephalosporin derivative, which in the presence of an outer membrane disruptor gains entry to the periplasm, where upon the action of β-lactamases leads to substrate hydrolysis with a detectable color change from yellow to red.
as §1, §2, §3, §4, §5, §6
reader. […] The concentration-dependent percentage cytotoxicity was fitted to a dose–response function (using Pipeline Pilot) and CC50 values were determined.
Human whole blood was washed three times with three volumes of 0.9% NaCl and then resuspended in the same solution to a concentration of 0.5 x 10^8 cells/mL, as determined by the manual cell count in a Neubauer hemocytometer. […] Hemolysis was determined by measuring the supernatant absorbance at […] (OD405). The absorbance was measured using a Tecan M1000 Pro monochromator plate reader. […]

[3] = test system: S. aureus ATCC 25923; assay: ATP efflux assay, S. aureus; format: cell-based, Staphylococcus aureus; details: compound at 100 µg/mL
Experimental: (§7) ATP efflux assays were conducted using reported protocols (see Supplementary File).
(§8) The mechanism of antibiotic action of 9e towards the Gram-positive bacterium Staphylococcus aureus was attributed to its ability to disrupt the bacterial membrane and cause the release of intracellular ATP. The test organisms, being S. aureus ATCC 25923 and MRSA, were briefly exposed to 9e at a single dose of 100 µg/mL, with the leakage of ATP determined by the use of a bioluminescence assay (Figure 4). […] Nevertheless, a 40% level of ATP release is detrimental to the survival of the bacteria. After 3 min, it will be clear that the bacteria will be killed.
(§9) 2.9 ATP efflux measurement
(§10) A solution of the compound was prepared in twice-distilled water at a fixed concentration of 100 µg/mL. The different Gram-positive suspensions were prepared in MH II broth and were incubated at 37 °C. […] Subsequently, 50 µL of Luceferin–Luceferase reagent (Yelen, France) was added to the mixture, and the luminescent signal was quantified with an Infinite M200 microplate reader (Tecan, Männedorf, Switzerland) for five seconds. ATP concentration was quantified by internal sample addition. Squalamine (100 µg/mL) was used as a positive control to quantify the maximum level of ATP efflux and water as the negative control. […]

[4] = test system: MRSA; assay: ATP efflux assay, MRSA; format: cell-based, methicillin-resistant S. aureus; details: compound at 100 µg/mL
Experimental: as §7, §8, §9, §10

| SMILES | Real-time bacterial growth inhibition [1] | Outer membrane perturbation (nitrocefin hydrolysis) [2] | ATP release relative to positive control squalamine [3] [%] | ATP release relative to positive control squalamine [4] [%] |
| --- | --- | --- | --- | --- |
| C=C[C@]1(C)C[C@@H](OC(=O)CSCCN(CC)CC)[C@]2(C)[C@H](C)CC[C@]3(CCC(=O)[C@H]32)[C@@H](C)[C@@H]1O [Compound 2, Tiamulin, reference compound] | inhibited the growth | failing to exhibit any detectable membrane perturbation | – | – |
| C=C[C@]1(C)C[C@@H](OC(=O)CNCCCNCCCCCCCCCCNCCCNCC(=O)O[C@@H]2C[C@@](C)(C=C)[C@@H](O)[C@H](C)[C@]34CCC(=O)[C@H]3[C@@]2(C)[C@H](C)CC4)[C@]2(C)[C@H](C)CC[C@]3(CCC(=O)[C@H]32)[C@@H](C)[C@@H]1O.O=C(O)C(F)(F)F.O=C(O)C(F)(F)F.O=C(O)C(F)(F)F.O=C(O)C(F)(F)F [Compound 9e, N^1,N^1′-(Decane-1,10-diyl)bis(N^3-(2-(((3aR,4R,5R,7S,8S,9R,9aS,12R)-8-hydroxy-4,7,9,12-tetramethyl-3-oxo-7-vinyldecahydro-4,9a-propanocyclopenta [8]annulen-5-yl)oxy)-2-oxoethyl)propane-1,3-diaminium) 2,2,2-trifluoroacetate] | inhibited the growth | inactive | 40 | 40 |
